Data on 27 compounds can be found in patent US20250333406A1, “SULFONYL CYCLIC DERIVATIVES, AND COMPOSITIONS AND METHODS THEREOF” (Lysoway Therapeutics, Inc., priority 2023, published 2025).

Structures are written as SMILES.

For this assay, the system named is TFEB. Description: TFEB Nuclear Translocation Assay. It is filed as cell-based. Conditions: read-out: EC50 of TFEB activation.
Turning to `CC(C)S(=O)(=O)c1ccc(S(=O)(=O)n2nc(N3CCN(c4ncc(F)cc4F)CC34CC4)c3c(F)cccc32)cc1` [Compound 26, 3-[7-(3,5-difluoro-2-pyridyl)-4,7-diazaspiro [2.5]octan-4-yl]-4-fluoro-1-(4-isopropylsulfonylphenyl) sulfonyl-indazole], the EC50 (as a rule, the concentration giving half of the maximal effect) was at most 1000 nM.

As to `CC(C)S(=O)(=O)c1ccc(S(=O)(=O)n2nc(N3CCN(c4ncc(F)cc4F)CC34CC4)c3c(Cl)cc(F)cc32)cc1` [Compound 27, 4-chloro-3-[7-(3,5-difluoro-2-pyridyl)-4,7-diazaspiro [2.5]octan-4-yl]-6-fluoro-1-(4-isopropylsulfonylphenyl)sulfonyl-indazole], the EC50 is at most 1000 nM.

For `CC(C)S(=O)(=O)c1ccc(S(=O)(=O)n2nc(N3CCN(c4ncc(F)cc4F)CC34CC4)c3c(F)cc(F)cc32)cc1` [Compound 28, 3-[7-(3,5-difluoro-2-pyridyl)-4,7-diazaspiro[2.5]octan-4-yl]-4,6-difluoro-1-(4-isopropylsulfonylphenyl)sulfonyl-indazole], the EC50 was at most 1000 nM.

As to `O=S(=O)(c1ccc(S(=O)(=O)n2nc(N3CCN(c4ncc(F)cn4)CC34CC4)c3c(Cl)cccc32)cc1)C1CC1` [Compound 29, 4-chloro-1-((4-(cyclopropylsulfonyl)phenyl)sulfonyl)-3-(7-(5-fluoropyrimidin-2-yl)-4,7-diazaspiro [2.5]octan-4-yl)-1H-indazole], the EC50 was at most 1000 nM.

`CC(C)S(=O)(=O)c1ccc(S(=O)(=O)n2nc(N3CCN(c4ncc(Cl)cc4F)CC34CC4)c3c(Cl)cccc32)s1` [Compound 30, 4-chloro-3-[7-(5-chloro-3-fluoro-2-pyridyl)-4,7-diazaspiro [2.5]octan-4-yl]-1-[(5-isopropylsulfonyl-2-thienyl)sulfonyl]indazole]: the EC50 was at most 1000 nM.

For `CC(C)S(=O)(=O)c1ccc(S(=O)(=O)n2nc(N3CCN(c4ncc(F)cc4F)CC34CC4)c3c(Cl)ccc(F)c32)s1` [Compound 31, 4-chloro-3-(7-(3,5-difluoropyridin-2-yl)-4,7-diazaspiro [2.5]octan-4-yl)-7-fluoro-1-((5-(isopropylsulfonyl)thiophen-2-yl)sulfonyl)-1H-indazole], the EC50 is at most 1000 nM.

As to `CC(C)S(=O)(=O)c1ccc(S(=O)(=O)n2nc(N3CCN(c4ncc(F)cc4F)CC34CC4)c3c(F)ccc(F)c32)s1` [Compound 32, 3-[7-(3,5-difluoro-2-pyridyl)-4,7-diazaspiro [2.5]octan-4-yl]-4,7-difluoro-1-[(5-isopropylsulfonyl-2-thienyl)sulfonyl]indazole], the EC50 is at most 1000 nM.

Regarding `CC(C)S(=O)(=O)c1ccc(S(=O)(=O)n2nc(N3CCN(c4ncc(Cl)cc4F)CC34CC4)c3c(F)ccc(F)c32)s1` [Compound 33, 3-[7-(5-chloro-3-fluoro-2-pyridyl)-4,7-diazaspiro [2.5]octan-4-yl]-4,7-difluoro-1-[(5-isopropylsulfonyl-2-thienyl)sulfonyl]indazole], the EC50 was at most 1000 nM.

In the case of `CC(C)S(=O)(=O)c1ccc(S(=O)(=O)n2nc(N3CCN(c4ncc(F)cn4)CC34CC4)c3c(F)ccc(F)c32)s1` [Compound 34, 4,7-difluoro-3-(7-(5-fluoropyrimidin-2-yl)-4,7-diazaspiro [2.5]octan-4-yl)-1-((5-(isopropylsulfonyl)thiophen-2-yl)sulfonyl)-1H-indazole], the EC50 was at most 1000 nM.

For the compound `CC(C)S(=O)(=O)c1ccc(S(=O)(=O)n2nc(N3CCN(c4ncc(Cl)cc4F)CC34CC4)c3c(Cl)cc(F)cc32)s1` [Compound 35, 4-chloro-3-(7-(5-chloro-3-fluoropyridin-2-yl)-4,7-diazaspiro[2.5]octan-4-yl)-6-fluoro-1-((5-(isopropylsulfonyl)thiophen-2-yl)sulfonyl)-1H-indazole], the EC50 is at most 1000 nM.

Turning to `CC(C)S(=O)(=O)c1ccc(S(=O)(=O)n2nc(N3CCN(c4ncc(Cl)cn4)CC34CC4)c3c(Cl)cc(F)cc32)s1` [Compound 36, 4-chloro-3-(7-(5-chloropyrimidin-2-yl)-4,7-diazaspiro [2.5]octan-4-yl)-6-fluoro-1-((5-(isopropylsulfonyl)thiophen-2-yl)sulfonyl)-1H-indazole], the EC50 is at most 1000 nM.

`CC(C)S(=O)(=O)c1ccc(S(=O)(=O)n2nc(N3CCN(c4ncc(F)cc4F)CC34CC4)c3c(Cl)cc(F)cc32)s1` [Compound 37, 4-chloro-3-[7-(3,5-difluoro-2-pyridyl)-4,7-diazaspiro [2.5]octan-4-yl]-6-fluoro-1-[(5-isopropylsulfonyl-2-thienyl)sulfonyl]indazole]: the EC50 was at most 1000 nM.

For `CC(C)S(=O)(=O)c1ccc(S(=O)(=O)n2nc(N3CCN(c4ncc(F)cn4)CC34CC4)c3c(Cl)cc(F)cc32)s1` [Compound 38, 4-chloro-6-fluoro-3-(7-(5-fluoropyrimidin-2-yl)-4,7-diazaspiro [2.5]octan-4-yl)-1-((5-(isopropylsulfonyl)thiophen-2-yl)sulfonyl)-1H-indazole], the EC50 is at most 1000 nM.

As for `CC(C)S(=O)(=O)c1ccc(S(=O)(=O)n2nc(N3CCN(c4ncc(Cl)s4)CC34CC4)c3c(Cl)cc(F)cc32)s1` [Compound 39, 5-chloro-2-(4-(4-chloro-6-fluoro-1-((5-(isopropylsulfonyl)thiophen-2-yl)sulfonyl)-1H-indazol-3-yl)-4,7-diazaspiro [2.5]octan-7-yl) thiazole], the EC50 was at most 1000 nM.

As for `CC(C)S(=O)(=O)c1ccc(S(=O)(=O)n2nc(N3CCN(c4ncc(F)cc4F)CC34CC4)c3c(F)cc(F)cc32)s1` [Compound 40, 3-(7-(3,5-difluoropyridin-2-yl)-4,7-diazaspiro [2.5]octan-4-yl)-4,6-difluoro-1-((5-(isopropylsulfonyl)thiophen-2-yl)sulfonyl)-1H-indazole], the EC50 was at most 1000 nM.

As to `CC(C)S(=O)(=O)c1ccc(S(=O)(=O)n2nc(N3CCN(c4ccc(F)cn4)CC34CC4)c3c(Cl)cc(F)cc32)s1` [Compound 41, 4-chloro-6-fluoro-3-[7-(5-fluoro-2-pyridyl)-4,7-diazaspiro [2.5]octan-4-yl]-1-[(5-isopropylsulfonyl-2-thienyl)sulfonyl]indazole], the EC50 is at most 1000 nM.

In the case of `CC(C)S(=O)(=O)c1ccc(S(=O)(=O)n2nc(N3CCN(c4ccc(F)cn4)CC34CC4)c3c(Cl)cccc32)s1` [Compound 42, 4-chloro-3-(7-(5-fluoropyridin-2-yl)-4,7-diazaspiro [2.5]octan-4-yl)-1-((5-(isopropylsulfonyl)thiophen-2-yl)sulfonyl)-1H-indazole], the EC50 is at most 1000 nM.

In the case of `CC(C)S(=O)(=O)c1ccc(S(=O)(=O)n2nc(N3CCN(c4ncc(Cl)cn4)CC34CC4)c3c(Cl)cccc32)s1` [Compound 43, 4-chloro-3-[7-(5-chloropyrimidin-2-yl)-4,7-diazaspiro [2.5]octan-4-yl]-1-[(5-isopropylsulfonyl-2-thienyl)sulfonyl]indazole], the EC50 was at most 1000 nM.

As to `CC(C)S(=O)(=O)c1ccc(S(=O)(=O)n2nc(N3CCN(c4ncc(F)cn4)CC34CC4)c3c(Cl)cccc32)s1` [Compound 44, 4-chloro-3-[7-(5-fluoropyrimidin-2-yl)-4,7-diazaspiro [2.5]octan-4-yl]-1-[(5-isopropylsulfonyl-2-thienyl)sulfonyl]indazole], the EC50 was at most 1000 nM.

In the case of `CC(C)S(=O)(=O)c1ccc(S(=O)(=O)n2nc(N3CCN(c4ncc(F)cc4F)CC34CC4)c3c(Cl)cccc32)s1` [Compound 45, 4-chloro-3-[7-(3,5-difluoro-2-pyridyl)-4,7-diazaspiro [2.5]octan-4-yl]-1-[(5-isopropylsulfonyl-2-thienyl)sulfonyl]indazole], the concentration for a half-maximal effect (EC50) is at most 1000 nM.

For `CC(C)S(=O)(=O)c1ccc(S(=O)(=O)n2nc(N3CCN(c4ncc(Cl)s4)CC34CC4)c3c(Cl)cccc32)s1` [Compound 46, 5-chloro-2-[4-[4-chloro-1-[(5-isopropylsulfonyl-2-thienyl)sulfonyl]indazol-3-yl]-4,7-diazaspiro [2.5]octan-7-yl]thiazole], the EC50 is at most 1000 nM.

`CC(C)S(=O)(=O)c1ccc(S(=O)(=O)n2nc(N3CCN(c4ccc(Cl)cn4)CC34CC4)c3c(Cl)cccc32)s1` [Compound 47, 4-chloro-3-[7-(5-chloro-2-pyridyl)-4,7-diazaspiro[2.5]octan-4-yl]-1-[(5-isopropylsulfonyl-2-thienyl)sulfonyl]indazole]: the EC50 was at most 1000 nM.

Turning to `CC(C)(C)S(=O)(=O)c1ccc(S(=O)(=O)n2nc(N3CCN(c4ccc(F)cn4)CC34CC4)c3c(Cl)cccc32)s1` [Compound 48, 1-[(5-tert-butylsulfonyl-2-thienyl)sulfonyl]-4-chloro-3-[7-(5-fluoro-2-pyridyl)-4,7-diazaspiro [2.5]octan-4-yl]indazole], the 50% effective concentration (EC50) is at most 1000 nM.

For the compound `CC(C)(C)S(=O)(=O)c1ccc(S(=O)(=O)n2nc(N3CCN(c4ncc(F)cn4)CC34CC4)c3c(Cl)cccc32)s1` [Compound 49, 1-((5-(tert-butylsulfonyl)thiophen-2-yl)sulfonyl)-4-chloro-3-(7-(5-fluoropyrimidin-2-yl)-4,7-diazaspiro [2.5]octan-4-yl)-1H-indazole], the EC50 was at most 1000 nM.

Regarding `CC(C)S(=O)(=O)c1ccc(S(=O)(=O)n2nc(N3CCN(c4ncc(F)cn4)CC3C3CC3)c3c(Cl)cccc32)cc1` (stereo not drawn) [Compound 50, 4-chloro-3-(2-cyclopropyl-4-(5-fluoropyrimidin-2-yl)piperazin-1-yl)-1-((4-(isopropylsulfonyl)phenyl)sulfonyl)-1H-indazole], the EC50 is at most 1000 nM.

With `CC(C)S(=O)(=O)c1ccc(S(=O)(=O)n2nc(N3CCN(c4ncc(F)cn4)CC3C3CC3)c3c(Cl)cc(F)cc32)cc1` (stereo not drawn) [Compound 51, 4-chloro-3-(2-cyclopropyl-4-(5-fluoropyrimidin-2-yl)piperazin-1-yl)-6-fluoro-1-((4-(isopropylsulfonyl)phenyl)sulfonyl)-1H-indazole], the EC50 is at most 1000 nM.

As to `O=S(=O)(c1ccc(S(=O)(=O)C(F)(F)F)cc1)n1nc(N2CCN(c3ncc(F)cn3)CC23CC3)c2c(Cl)cccc21` [Compound 52, 4-chloro-3-(7-(5-fluoropyrimidin-2-yl)-4,7-diazaspiro [2.5]octan-4-yl)-1-((4-((trifluoromethyl)sulfonyl)phenyl)sulfonyl)-1H-indazole], the EC50 was at most 1000 nM.
